Results reported in patent publication US20230357269A1 (LES LABORATOIRES SERVIER, priority 2020, published 2023).

Molecular target: human recombinant LRRK2 protein (Homo sapiens (Human), UniProt Q5S007)
Experiment: LRRK2 Kinase Activity Assay (ADP-Glo)
Format: biochemical
Settings: LRRK2 wt; LRRKtide peptide and ATP substrates; 1h-incubation at 37° C.
Method in brief: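 Recombinant human LRRK2 acted on LRRKtide peptide and ATP for 1 h at 37 °C. ADP formed was detected by ADP-Glo luminescence (ATP depletion, then ADP-to-ATP conversion and luciferase). IC50s came from curve fits over 10 concentrations (N=2).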

Chain of human recombinant LRRK2 protein (Q5S007 whole entry): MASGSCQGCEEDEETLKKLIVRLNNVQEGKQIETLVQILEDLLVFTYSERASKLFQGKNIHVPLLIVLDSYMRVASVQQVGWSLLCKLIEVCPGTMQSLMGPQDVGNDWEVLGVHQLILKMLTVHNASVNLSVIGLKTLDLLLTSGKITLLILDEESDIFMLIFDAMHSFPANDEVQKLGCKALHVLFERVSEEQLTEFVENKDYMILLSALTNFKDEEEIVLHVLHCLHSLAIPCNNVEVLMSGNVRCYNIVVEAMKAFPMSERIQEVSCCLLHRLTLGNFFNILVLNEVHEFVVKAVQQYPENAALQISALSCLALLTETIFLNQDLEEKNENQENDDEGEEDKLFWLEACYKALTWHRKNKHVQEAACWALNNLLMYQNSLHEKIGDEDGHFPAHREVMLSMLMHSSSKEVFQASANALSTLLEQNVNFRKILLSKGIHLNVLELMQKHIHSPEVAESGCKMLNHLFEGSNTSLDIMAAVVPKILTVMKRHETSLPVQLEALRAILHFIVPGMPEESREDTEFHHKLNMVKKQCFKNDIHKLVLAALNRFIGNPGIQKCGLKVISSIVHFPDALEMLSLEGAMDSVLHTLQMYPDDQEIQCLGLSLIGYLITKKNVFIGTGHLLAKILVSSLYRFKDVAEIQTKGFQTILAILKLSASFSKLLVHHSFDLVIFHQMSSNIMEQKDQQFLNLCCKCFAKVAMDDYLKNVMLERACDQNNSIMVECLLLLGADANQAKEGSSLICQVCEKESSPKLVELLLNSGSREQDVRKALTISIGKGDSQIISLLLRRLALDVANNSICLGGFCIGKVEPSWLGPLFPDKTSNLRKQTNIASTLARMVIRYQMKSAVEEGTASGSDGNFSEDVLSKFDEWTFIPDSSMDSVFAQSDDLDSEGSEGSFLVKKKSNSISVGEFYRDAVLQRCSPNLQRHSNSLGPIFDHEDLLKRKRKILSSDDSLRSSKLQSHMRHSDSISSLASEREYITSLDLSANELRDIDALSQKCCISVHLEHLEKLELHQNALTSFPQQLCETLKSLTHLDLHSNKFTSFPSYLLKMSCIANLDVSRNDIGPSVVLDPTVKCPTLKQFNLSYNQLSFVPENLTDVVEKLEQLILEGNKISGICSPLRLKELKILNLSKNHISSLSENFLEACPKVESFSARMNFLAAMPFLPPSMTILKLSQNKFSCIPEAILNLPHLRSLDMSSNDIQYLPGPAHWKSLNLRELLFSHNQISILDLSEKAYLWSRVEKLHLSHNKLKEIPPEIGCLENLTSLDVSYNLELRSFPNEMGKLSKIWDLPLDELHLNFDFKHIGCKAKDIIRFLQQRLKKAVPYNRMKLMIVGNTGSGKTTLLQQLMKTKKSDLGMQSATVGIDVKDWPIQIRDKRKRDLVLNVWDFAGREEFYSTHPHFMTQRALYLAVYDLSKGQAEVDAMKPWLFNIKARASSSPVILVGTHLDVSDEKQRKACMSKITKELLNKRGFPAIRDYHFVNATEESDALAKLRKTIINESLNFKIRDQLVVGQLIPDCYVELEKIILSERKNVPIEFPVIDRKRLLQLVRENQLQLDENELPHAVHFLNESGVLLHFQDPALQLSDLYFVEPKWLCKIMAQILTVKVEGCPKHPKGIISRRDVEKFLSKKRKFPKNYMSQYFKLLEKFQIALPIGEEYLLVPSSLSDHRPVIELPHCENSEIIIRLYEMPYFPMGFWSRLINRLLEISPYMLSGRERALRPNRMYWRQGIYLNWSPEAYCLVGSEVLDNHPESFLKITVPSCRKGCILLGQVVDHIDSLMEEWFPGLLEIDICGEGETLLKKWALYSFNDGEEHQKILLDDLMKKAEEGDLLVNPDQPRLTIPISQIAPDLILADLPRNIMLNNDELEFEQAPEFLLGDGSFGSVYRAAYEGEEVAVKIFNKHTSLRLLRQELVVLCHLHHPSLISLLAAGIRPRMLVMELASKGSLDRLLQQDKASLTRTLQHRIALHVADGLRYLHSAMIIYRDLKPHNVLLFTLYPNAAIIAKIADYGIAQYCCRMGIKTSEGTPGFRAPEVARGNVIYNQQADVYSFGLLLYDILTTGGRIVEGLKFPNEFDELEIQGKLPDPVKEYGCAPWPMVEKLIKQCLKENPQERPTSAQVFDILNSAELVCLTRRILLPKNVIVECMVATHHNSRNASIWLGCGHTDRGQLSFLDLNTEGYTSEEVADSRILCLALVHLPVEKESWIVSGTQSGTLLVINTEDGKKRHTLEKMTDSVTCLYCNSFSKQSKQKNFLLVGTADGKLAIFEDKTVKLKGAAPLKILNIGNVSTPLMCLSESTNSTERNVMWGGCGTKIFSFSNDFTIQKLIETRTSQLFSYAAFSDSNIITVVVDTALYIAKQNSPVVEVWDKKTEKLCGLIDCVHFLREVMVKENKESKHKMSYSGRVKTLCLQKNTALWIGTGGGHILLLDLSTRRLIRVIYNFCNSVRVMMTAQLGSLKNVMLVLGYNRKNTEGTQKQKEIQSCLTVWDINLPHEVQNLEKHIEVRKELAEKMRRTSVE

| IC50 [nM] | Compound |
| --- | --- |
| < 10 | CC1CCNC(=O)OCc2cc(F)cc(c2)-c2n[nH]c3ccc(cc23)O1 (single isomer, unassigned) [Example 101, (13R) or (13S)-4-fluoro-13-methyl-8,14-dioxa-10,19,20-triazatetracyclo[13.5.2.1^2,6.0^18,21]tricosa-1(20),2(23),3,5,15(22),16,18(21)-heptaen-9-one] |
| < 10 | COC1CN(c2cc3cc(c2)-c2n[nH]c4ccc(cc24)OCCCNC(=O)OC3)C1 [Example 32, 4-(3-methoxyazetidin-1-yl)-8,14-dioxa-10,19,20-triazatetracyclo[13.5.2.1^2,6.0^18,21]tricosa-1(20),2,4,6(23),15,17,21-heptaen-9-one] |
| < 10 | Cn1ccc(-c2cc3cc(c2)-c2n[nH]c4ccc(cc24)OCCCNC(=O)OC3)n1 [Example 64, 4-(1-methyl-1H-pyrazol-3-yl)-8,14-dioxa-10,19,20-triazatetracyclo[13.5.2.1^2,6.0^18,21]tricosa-1(20),2(23),3,5,15(22),16,18(21)-heptaen-9-one] |
| < 10 | O=C1NC[C@@H](F)COc2ccc3[nH]nc(c3c2)-c2cnn(n2)CCO1 [Example 174, (12R)-12-fluoro-8,14-dioxa-4,5,10,19,20,23-hexaazatetracyclo[13.5.2.1^2,5.0^18,21]tricosa-1(20),2(23),3,15,17,21-hexaen-9-one] |
| < 10 | C[C@@H]1CCNC(=O)OCc2cccc(c2)-c2n[nH]c3cc(Cl)c(cc23)O1 [Example 138, (13R)-16-chloro-13-methyl-8,14-dioxa-10,19,20-triazatetracyclo[13.5.2.1^2,6.0^18,21]tricosa-1(20),2,4,6(23),15,17,21-heptaen-9-one] |
| < 10 | O=C1NCCCOc2ccc3[nH]nc(c3c2)-c2cc(cc(N3CCC3)c2)CO1 [Example 35, 4-(azetidin-1-yl)-8,14-dioxa-10,19,20-triazatetracyclo[13.5.2.1^2,6.0^18,21]tricosa-1(20),2,4,6(23),15,17,21-heptaen-9-one] |
| < 10 | C[C@@H]1CCNC(=O)OCc2cc(ccn2)-c2n[nH]c3ccc(cc23)O1 [Example 117, (13R)-13-methyl-8,14-dioxa-5,10,19,20-tetraazatetracyclo[13.5.2.1^2,6.0^18,21]tricosa-1(20),2,4,6(23),15,17,21-heptaen-9-one] |
| < 10 | O=C1NCCCOc2ccc3[nH]nc(c3c2)-c2cc(cc(C3CC3)c2)CO1 [Example 48, 4-cyclopropyl-8,14-dioxa-10,19,20-triazatetracyclo[13.5.2.1^2,6.0^18,21]tricosa-1(20),2,4,6(23),15,17,21-heptaen-9-one] |
| < 10 | O=C1NCCCCc2ccc3[nH]nc(c3c2)-c2cccc(c2)CO1 [Example 142, 8-oxa-10,19,20-triazatetracyclo[13.5.2.1^2,6.0^18,21]tricosa-1(20),2(23),3,5, 15(22),16,18(21)-heptaen-9-one] |
| < 10 | CCc1cc2nn1CCOC(=O)NCCCOc1ccc3[nH]nc-2c3c1 [Example 122, 4-ethyl-8,14-dioxa-5,10,19,20,23-pentaazatetracyclo[13.5.2.1^2,5.0^18,21]tricosa-1(20),2(23),3,15,17,21-hexaen-9-one] |
| < 10 | C[C@H]1OC(=O)NCCCOc2ccc3[nH]nc(c3c2)-c2cccc1c2 [Example 68, (7R)-7-methyl-8,14-dioxa-10,19,20-triazatetracyclo[13.5.2.1^2,6.0^18,21]tricosa-1(20),2(23),3,5,15(22),16,18(21)-heptaen-9-one] |
| 10 to 100 | CC(C)N1CCCOc2ccc3[nH]nc(c3c2)-c2cncc(c2)COC1=O [Example 6, 10-(propan-2-yl)-8,14-dioxa-4,10,19,20-tetraazatetracyclo[13.5.2.1^2,6.0^18,21]tricosa-1(20),2,4,6(23),15,17,21-heptaen-9-one] |
| < 10 | O=C1NCCCOc2ccc3[nH]nc(c3c2)-c2cc(cc(CN3CCCC3)c2)CO1 [Example 42, 4-[(pyrrolidin-1-yl)methyl]-8,14-dioxa-10,19,20-triazatetracyclo[13.5.2.1^2,6.0^18,21]tricosa-1(20),2,4,6(23),15,17,21-heptaen-9-one] |
| < 10 | O=C1NCCCOc2ccc3[nH]nc(c3c2)-c2cnn(n2)CCO1 [Example 166, 8,14-dioxa-4,5,10,19,20,23-hexaazatetracyclo[13.5.2.1^2,5.0^18,21]tricosa-1(20),2(23),3,15(22),16,18(21)-hexaen-9-one] |
| < 10 | O=C1NCCCOc2ccc3[nH]nc(c3c2)-c2cc(cc(OCCN3CCOCC3)c2)CO1 [Example 66, 4-[2-(morpholin-4-yl)ethoxy]-8,14-dioxa-10,19,20-triazatetracyclo[13.5.2.1^2,6.0^18,21]tricosa-1(20),2(23),3,5,15(22),16,18(21)-heptaen-9-one] |
| < 10 | O=C1NCCCOc2ccc3[nH]nc(c3c2)-c2ccn(c2)CCO1 [Example 99, 8,14-dioxa-5,10,19,20-tetraazatetracyclo[13.5.2.1^2,5.0^18,21]tricosa-1(20),2(23),3,15(22),16,18(21)-hexaen-9-one] |

| IC50 [nM] | Compound |
| --- | --- |
| < 10 | CCC1OC(=O)NCCCOc2ccc3[nH]nc(c3c2)-c2cccc1c2 (single isomer, unassigned) [Example 116, (7R)- or (7S)-7-ethyl-8,14-dioxa-10,19,20-triazatetracyclo[13.5.2.1^2,6.0^18,21]tricosa-1(20),2,4,6(23),15,17,21-heptaen-9-one] |
| 10 to 100 | O=C1NCCCOc2ccc3[nH]nc(c3c2)-c2cc(cc(CN3CCCCC3)c2)CO1 [Example 43] |
| < 10 | O=C1NCCCOc2ccc3[nH]nc(c3c2)-c2ccc(N3CCCC3=O)c(c2)CO1 [Example 75, 5-(2-oxopyrrolidin-1-yl)-8,14-dioxa-10,19,20-triazatetracyclo[13.5.2. 1^2,6.0^18,21]tricosa-1(20),2(23),3,5,15(22),16,18(21)-heptaen-9-one] |
| < 10 | COc1cc2cc(c1)-c1n[nH]c3ccc(cc13)OCCCNC(=O)OC2 [Example 8, 4-methoxy-8,14-dioxa-10,19,20-triazatetracyclo[13.5.2.1^2,6.0^18,21]tricosa-1(20),2,4,6(23),15,17,21-heptaen-9-one] |
| < 10 | Cc1cc2cc(c1F)C(C)OC(=O)NCCCOc1ccc3[nH]nc-2c3c1 (centres unmarked) [Example 90, 5-fluoro-4,7-dimethyl-8,14-dioxa-10,19,20-triazatetracyclo[13.5.2.1^2,6.0^18,21]tricosa-1(20),2(23),3,5,15(22),16,18(21)-heptaen-9-one] |
| < 10 | O=C1NCCCOc2ccc3[nH]nc(c3c2)-c2cc(cc(CN3CCOCC3)c2)CO1 [Example 41, 4-[(morpholin-4-yl)methyl]-8,14-dioxa-10,19,20-triazatetracyclo[13.5.2.1^2,6.0^18,21]tricosa-1(20),2,4,6(23),15,17,21-heptaen-9-one] |
| < 10 | O=C1OC2CN1CCCOc1ccc3[nH]nc(c3c1)-c1cccc2c1 (centres unmarked) [Example 91, 8,14-dioxa-10,19,20-triazapentacyclo[13.5.2.1^2,6.1^7,10.0^18,21]tetracosa-1(20),2(24),3,5,15(22),16,18(21)-heptaen-9-one] |
| < 10 | O=C1NCCCOc2ccc3[nH]nc(c3c2)-c2cc(cc(N3CCC(F)(F)C3)c2)CO1 [Example 21, 4-(3,3-difluoropyrrolidin-1-yl)-8,14-dioxa-10,19,20-triazatetracyclo[13.5.2.1^2,6.0^18,21]tricosa-1(20),2,4,6(23),15,17,21-heptaen-9-one] |
| < 10 | COc1cc2nc(c1)-c1n[nH]c3ccc(cc13)O[C@H](C)CCNC(=O)OC2 [Example 127, (13R)-4-methoxy-13-methyl-8,14-dioxa-10,19,20,23-tetraazatetracyclo[13.5.2.1^2,6.0^18,21]tricosa-1(20),2,4,6(23),15,17,21-heptaen-9-one] |
| < 10 | O=C1NCCCOc2ccc3[nH]nc(c3c2)-c2ccc(F)c(c2)CO1 [Example 10, 5-fluoro-8,14-dioxa-10,19,20-triazatetracyclo[13.5.2.1^2,6.0^18,21]tricosa-1(20), 2,4,6(23),15,17,21-heptaen-9-one] |
| < 10 | Cc1cc2cc(c1)-c1n[nH]c3ccc(cc13)OCCCN(C)C(=O)OC2 [Example 54, 4,10-dimethyl-8,14-dioxa-10,19,20-triazatetracyclo[13.5.2.1^2,6.0^18,21]tricosa-1(20),2,4,6(23),15,17,21-heptaen-9-one] |
| < 10 | CN1CCN(Cc2cc3cc(c2)-c2n[nH]c4ccc(cc24)OCCCNC(=O)OC3)CC1 [Example 44, 4-[(4-methylpiperazin-1-yl)methyl]-8,14-dioxa-10,19,20-triazatetracyclo[13.5.2.1^2,6.0^18,21]tricosa-1(20),2,4,6(23),15,17,21-heptaen-9-one] |
| < 10 | O=C1NCCCOc2ccc3[nH]nc(c3c2)-c2cc(cc(C3CCOC3)c2)CO1 (centres unmarked) [Example 61, 4-(oxolan-3-yl)-8,14-dioxa-10,19,20-triazatetracyclo[13.5.2.1^2,6.0^18,21]tricosa-1(20),2,4,6(23),15,17,21-heptaen-9-one] |
| < 10 | C[C@@H]1CCNC(=O)OCc2cccc(c2)-c2n[nH]c3cc(F)c(cc23)O1 [Example 132, (13R)-16-fluoro-13-methyl-8,14-dioxa-10,19,20-triazatetracyclo[13.5.2.1^2,6.0^18,21]tricosa-1(20),2,4,6(23),15,17,21-heptaen-9-one] |
| < 10 | CC1OC(=O)NCCCOc2ccc3[nH]nc(c3c2)-c2cc(F)cc1c2 (centres unmarked) [Example 56, 4-fluoro-7-methyl-8,14-dioxa-10,19,20-triazatetracyclo[13.5.2.1^2,6.0^18,21]tricosa-1(20),2,4,6(23),15,17,21-heptaen-9-one] |

| Compound | IC50 [nM] |
| --- | --- |
| O=C1NCCCOc2ccc3[nH]nc(c3c2)-c2cc(cc(C3=CCN(C4COC4)CC3)c2)CO1 [Example 57, 4-[1-(oxetan-3-yl)-1,2,3,6-tetrahydropyridin-4-yl]-8,14-dioxa-10,19,20-triazatetracyclo[13.5.2.1^2,6.0^18,21]tricosa-1(20),2,4,6(23),15,17,21-heptaen-9-one] | < 10 |
